According to patent US9586969B2, “Microbiocidal heterobicyclic derivatives” (Syngenta Participations AG, priority 2014, dated 2017):
Like-named read-outs stand apart in the source and are kept apart here.

How the values were obtained:
Format in all cases: cell-based
[1] = test system: Botryotinia fuckeliana (Botrytis cinerea); assay: Botryotinia fuckeliana (Botrytis cinerea) / liquid culture (Gray mould); conditions: 72 h, read-out: disease control
[2] = test system: Monographella nivalis (Microdochium nivale); assay: Monographella nivalis (Microdochium nivale) / liquid culture (Foot rot cereals); conditions: 96 h, read-out: disease control
[3] = test system: Glomerella lagenarium (Colletotrichum lagenarium); assay: Glomerella lagenarium (Colletotrichum lagenarium) / liquid culture (Anthracnose); conditions: Colletotrichum orbiculare, read-out: disease control
Fusarium culmorum = assay: microbe, parasite or virus in culture; conditions: 72 h, read-out: disease control
[4] = 200 ppm, liquid culture, 24° C., inhibition of growth determined photometrically 3-4 days after application, vs untreated control
[5] = 200 ppm, liquid culture, 24° C., inhibition of growth determined photometrically 4-5 days after application, vs untreated control
[6] = 200 ppm, liquid culture, 24° C., inhibition of growth measured photometrically 3-4 days after application, vs untreated control

Compound	inhibition of growth at 200 ppm [1, 4]	inhibition of growth at 200 ppm [2, 5]	inhibition of growth at 200 ppm [3, 6]	also measured
Cc1cccc2c1CC(C)(C)N=C2c1cnn2cccc2c1 [E 4]	≥ 80%	≥ 80%	≥ 80%	–
CC1(C)Cc2c(Cl)cccc2C(c2cnn3cccc3c2)=N1 [E 6]	≥ 80%	≥ 80%	≥ 80%	inhibition of growth at 200 ppm (Fusarium culmorum): ≥ 80%
CC1(C)Cc2ccccc2C(c2cnn3c(F)ccc3c2)=N1 [E 8]	≥ 80%	≥ 80%	≥ 80%	–
CC1(C)Cc2ccccc2C(c2cnn3cccc3c2)=N1 [E 10, 3,3-dimethyl-1-pyrrolo[1,2-b]pyridazin-3-yl-4H-isoquinoline]	≥ 80%	≥ 80%	≥ 80%	–
CC1(C)Cc2c(F)cccc2C(c2cnn3c(F)cc(F)c3c2)=N1 [E 11]	≥ 80%	–	≥ 80%	–
CC1(C)N=C(c2cnn3c(Cl)ccc3c2)c2cccc(F)c2C1(C)C [E 13]	–	–	–	inhibition of growth at 200 ppm [1]: ≥ 80%; inhibition of growth at 200 ppm [2]: ≥ 80%; inhibition of growth at 200 ppm [3]: ≥ 80%
CC1(C)N=C(c2cnn3ccc(Cl)c3c2)c2cccc(F)c2C1(C)C [E 16]	≥ 80%	–	≥ 80%	–
CC1(C)Cc2ccccc2C(c2cnn3cccc3c2)N1 (stereo not shown) [E 20]	≥ 80%	–	–	–
COc1cccc2c1CC(C)(C)N=C2c1cnn2c(F)ccc2c1 [E 23]	≥ 80%	–	≥ 80%	–
CC1(C)N=C(c2cnn3c(F)cc(C#N)c3c2)c2cccc(F)c2C1(C)C [E 25]	≥ 80%	≥ 80%	≥ 80%	–
CC1(C)Cc2c(cccc2-c2ccccc2F)C(c2cnn3c(F)ccc3c2)=N1 [E 28]	≥ 80%	–	≥ 80%	–
CC1(C)Cc2c(O)cccc2C(c2cnn3cccc3c2)=N1 [E 34]	≥ 80%	–	≥ 80%	–
CC1(C)N=C(c2cnn3c(F)cc(C(F)(F)F)c3c2)c2cccc(F)c2C1(C)C [E 35]	≥ 80%	–	≥ 80%	–
CC1(C)N=C(c2cnn3c(C(F)(F)F)cc(C(F)(F)F)c3c2)c2cccc(F)c2C1(C)C [E 36]	≥ 80%	–	–	–
CC1(C)N=C(c2cnn3c(I)ccc3c2)c2cccc(F)c2C1(C)C [E 37]	≥ 80%	≥ 80%	≥ 80%	–
CC1(C)Cc2c(OC(F)F)cccc2C(c2cnn3cccc3c2)=N1 [E 39]	≥ 80%	–	–	–
C#Cc1cc(F)n2ncc(C3=NC(C)(C)C(C)(C)c4c(F)cccc43)cc12 [E 40]	≥ 80%	–	≥ 80%	–
CC1(C)N=C(c2cnn3c(C(F)(F)F)ccc3c2)c2cccc(F)c2C1(C)C [E 43]	≥ 80%	≥ 80%	≥ 80%	–
CC1(C)N=C(c2cnn3c(Br)cc(Br)c3c2)c2cccc(F)c2C1(C)C [E 44]	≥ 80%	–	–	–
CC1(C)N=C(c2cnn3cccc3c2)c2cccc(F)c2C1(C)C [E 45]	–	–	–	inhibition of growth at 200 ppm (Fusarium culmorum): ≥ 80%
CO/N=C(\C)c1cccc2c1CC(C)(C)N=C2c1cnn2cccc2c1 [E 56]	≥ 80%	–	≥ 80%	–
CO/N=C(/C)c1cccc2c1CC(C)(C)N=C2c1cnn2cccc2c1 [E 57]	≥ 80%	–	≥ 80%	–
CC1(C)Cc2c(C#N)cccc2C(c2cnn3cccc3c2)=N1 [E 58]	≥ 80%	–	≥ 80%	inhibition of growth at 200 ppm (Fusarium culmorum): ≥ 80%

Compound	inhibition of growth at 200 ppm [1, 4]	inhibition of growth at 200 ppm [2, 5]	inhibition of growth at 200 ppm [3, 6]	also measured
CC1(C)Cc2c(cccc2C2CC2)C(c2cnn3cccc3c2)=N1 [E 59]	≥ 80%	–	–	–
CC1(C)N=C(c2cnn3cccc3c2)c2ccccc2C1(C)C [E 61]	≥ 80%	–	≥ 80%	inhibition of growth at 200 ppm (Fusarium culmorum): ≥ 80%
C#Cc1ccc2cc(C3=NC(C)(C)C(C)(C)c4c(F)cccc43)cnn12 [E 62]	≥ 80%	≥ 80%	≥ 80%	–
CC1(C)Cc2ccccc2C(c2cnn3c(Br)ccc3c2)=N1 [E 65]	≥ 80%	≥ 80%	–	–
CC1(C)N=C(c2cnn3ccc(Br)c3c2)c2ccccc2C1=O [E 67]	–	≥ 80%	≥ 80%	–
CC1(C)N=C(c2cnn3cccc3c2)c2cccc(C#N)c2C1(C)C [E 68]	≥ 80%	–	≥ 80%	–
CC1(C)N=C(c2cnn3c(Cl)cc(Cl)c3c2)c2cccc(F)c2C1(C)C [E 69]	≥ 80%	≥ 80%	≥ 80%	–
CC1(C)N=C(c2cnn3ccc(Br)c3c2)c2ccccc2C1(F)F [E 70]	≥ 80%	≥ 80%	≥ 80%	–
Cc1nn2cccc2cc1C1=NC(C)(C)C(C)(C)c2cc(F)ccc21 [E 78]	≥ 80%	–	≥ 80%	inhibition of growth at 200 ppm (Fusarium culmorum): ≥ 80%
Cc1c(C2=NC(C)(C)C(C)(C)c3cc(F)ccc32)cnn2cccc12 [E 79]	≥ 80%	–	≥ 80%	inhibition of growth at 200 ppm (Fusarium culmorum): ≥ 80%
Cc1c(C2=NC(C)(C)C(C)(C)c3c2ccc(F)c3F)cnn2cccc12 [E 81]	≥ 80%	–	≥ 80%	inhibition of growth at 200 ppm (Fusarium culmorum): ≥ 80%
Cc1c(C2=NC(C)(C)C(C)(C)c3c(F)cccc32)cnn2c(Br)ccc12 [E 82]	≥ 80%	≥ 80%	≥ 80%	–
Cc1c(C2=NC(C)(C)C(C)(C)c3c(F)cccc32)cnn2c(C#N)ccc12 [E 83]	≥ 80%	–	≥ 80%	–
CC1(C)N=C(c2cnn3ccnc3c2)c2cccc(F)c2C1(C)C [E 85]	≥ 80%	≥ 80%	≥ 80%	–
CC1(C)Cc2c(F)cccc2C(c2cnn3ccnc3c2)=N1 [E 86]	≥ 80%	–	–	–
CC1(C)N=C(c2cnn3c(C#N)cnc3c2)c2cccc(F)c2C1(F)F [E 88]	≥ 80%	–	–	–
CC1(C)N=C(c2cnn3ccnc3c2)c2cccc(F)c2C1(F)F [E 89]	≥ 80%	–	≥ 80%	–
CC1(C)N=C(c2cnn3c(Br)cnc3c2)c2cccc(F)c2C1(F)F [E 91]	≥ 80%	–	–	–
Cc1nn2cccc2cc1C1=NC(C)(C)C(C)(C)c2c(F)cccc21 [E 92]	≥ 80%	–	≥ 80%	–
Cc1c(C2=NC(C)(C)C(C)(C)c3c(F)cccc32)cnn2cccc12 [E 93]	≥ 80%	–	≥ 80%	–
CC1(C)N=C(c2cnn3cccc3c2)c2ccc(Cl)c(F)c2C1(C)C [E 94]	≥ 80%	–	≥ 80%	–
Cc1c(C2=NC(C)(C)C(C)(C)c3c(F)cccc32)cnn2c(F)ccc12 [E 95]	≥ 80%	–	≥ 80%	–
